Assay results published in EPA's ToxRefDB 2.

Legend:
[1] = test system: rat; details: Combined chronic toxicity/carcinogenicity, sprague dawley, Oral, Feed, dose end: 24 month, group: systemic
[2] = test system: rabbit; details: Prenatal developmental toxicity study, new zealand white, Oral, Gavage/Intubation, dose end: 18 GD
[3] = test system: mouse; details: Carcinogenicity; cd1; Oral; Feed; dose end: 78 week; group: systemic; systemic / in life observation / body weight / body weight + systemic / in life observation / body weight / body weight gain
[4] = test system: rat; details: Subchronic oral toxicity in rodents, sprague-dawley, Gavage/Intubation, dose end: 90 day, group: systemic, systemic / in life observation / body weight / body weight gain + systemic / in life observation / clinical signs / exophthalamus + systemic…
[5] = test system: mouse; details: Carcinogenicity; cd1; Oral; Feed; dose end: 18 month; group: systemic; systemic / in life observation / body weight / body weight
[6] = test system: dog; details: Chronic toxicity, beagle, Oral, Feed, dose end: 52 week, group: systemic
[7] = test system: rat; details: Combined chronic toxicity/carcinogenicity, sprague dawley, Oral, Feed, dose end: 104 week, group: systemic
[8] = test system: rat; details: Subchronic oral toxicity in rodents, sprague dawley, Gavage/Intubation, dose end: 90 day, group: systemic
[9] = test system: rat; details: Prenatal developmental toxicity study, sprague dawley, Oral, Gavage/Intubation, dose end: 15 GD
[10] = test system: rat; details: Subchronic dermal toxicity, sprague dawley, Topical, dose end: 90 day, group: systemic, systemic / pathology microscopic / liver / hypertrophy
[11] = test system: rat; details: Subchronic oral toxicity in rodents, sprague dawley, Gavage/Intubation, dose end: 90 day, group: systemic, systemic / in life observation / body weight / body weight + systemic / in life observation / body weight / body weight gain
[12] = systemic / clinical chemistry / aspartate aminotransferase (ast/sgot) / aspartate aminotransferase (ast/sgot)
[13] = systemic / in life observation / mortality / mortality + systemic / pathology gross / mammary gland / cyst + systemic / pathology gross / …
[14] = group: developmental, developmental / developmental malformation / bone / supernumerary
[15] = group: developmental, developmental / developmental malformation / bone / supernumerary + developmental / developmental malformation / bone / short supernumerary…
[16] = group: maternal, systemic / in life observation / body weight / body weight gain + systemic / in life observation / food consumption / food consumption
[17] = systemic / in life observation / clinical signs / feces, discoloration
[18] = systemic / organ weight / adrenal gland / absolute + systemic / organ weight / adrenal gland / relative to body weight + systemic / organ …
[19] = systemic / in life observation / body weight / body weight + systemic / in life observation / body weight / body weight gain
[20] = systemic / in life observation / body weight / body weight + systemic / in life observation / body weight / body weight gain + systemic / …
[21] = systemic / in life observation / body weight / body weight + systemic / organ weight / liver / absolute + systemic / organ weight / liver / …
[22] = group: developmental, developmental / developmental malformation / bone / [other] + systemic / in life observation / body weight / fetal weight
[23] = group: maternal, systemic / in life observation / body weight / body weight gain + systemic / in life observation / food consumption / food consumption + …

## CC1(C)NC(=O)NC1=O [5,5-Dimethylhydantoin]
[1]; [12]
  LEL: 100 mg/kg/day
  NEL: < 100 mg/kg/day
[1]; [13]
  LOAEL: 1000 mg/kg/day
  NOAEL: 320 mg/kg/day
[2]; [14]
  LEL: 500 mg/kg/day
  LOAEL: 500 mg/kg/day
[2]; [15]
  NEL: 100 mg/kg/day
  NOAEL: 100 mg/kg/day
[2]; [16]
  LEL: 1000 mg/kg/day
  LOAEL: 1000 mg/kg/day
  NEL: 500 mg/kg/day
  NOAEL: 500 mg/kg/day
[3]
  LEL: 1000 mg/kg/day
  LOAEL: 1000 mg/kg/day
  NEL: 300 mg/kg/day
  NOAEL: 300 mg/kg/day
[4]
  LEL: 1050 mg/kg/day
  LOAEL: > 1050 mg/kg/day
  NEL: 100 mg/kg/day
  NOAEL: ≥ 1050 mg/kg/day
[5]
  LEL: 321 mg/kg/day
  LOAEL: > 1010 mg/kg/day
  NEL: 101 mg/kg/day
  NOAEL: ≥ 1010 mg/kg/day
[6]; [17]
  LEL: 120 mg/kg/day
  NEL: < 120 mg/kg/day
[6]; [18]
  LOAEL: 1510 mg/kg/day
  NOAEL: 342 mg/kg/day
[7]; [19]
  NEL: 300 mg/kg/day
  NOAEL: 300 mg/kg/day
[7]; [20]
  LEL: 1000 mg/kg/day
  LOAEL: 1000 mg/kg/day
[8]; [21]
  LEL: 1020 mg/kg/day
  LOAEL: 1020 mg/kg/day
  NOAEL: 303 mg/kg/day
[8]; systemic / organ weight / kidney / absolute + systemic / organ weight / liver / absolute + systemic / organ weight / liver / relative to …
  NEL: 303 mg/kg/day

## CC(=O)N(CCN(C(C)=O)C(C)=O)C(C)=O [Tetraacetylethylenediamine]
[9]; [22]
  LEL: 1000 mg/kg/day
  LOAEL: 1000 mg/kg/day
  NEL: 200 mg/kg/day
  NOAEL: 200 mg/kg/day
[9]; [16]
  LEL: 200 mg/kg/day
  LOAEL: 200 mg/kg/day
[9]; [23]
  NEL: 40 mg/kg/day
  NOAEL: 40 mg/kg/day
[10]
  LEL: 2000 mg/kg/day
  LOAEL: > 2000 mg/kg/day
  NEL: 200 mg/kg/day
  NOAEL: ≥ 2000 mg/kg/day
[11]
  LEL: 25 mg/kg/day
  LOAEL: 25 mg/kg/day
  NEL: < 25 mg/kg/day
  NOAEL: < 25 mg/kg/day
